Laboratory results taken from patent US7160862B2, “Integrin binding motif containing peptides and methods of treating skeletal diseases” (Acologix, Inc., priority 2000, dated 2007).
Where no end group is shown, it is not given here.

Columns and labels:
[1] = tested on: calvaria from 4-days-old mice; test: Fetal mouse calvarial assay (mouse calvarial organ culture, histomorphometry of new bone area); type: cell-based; settings: 7-day organ culture of mouse calvaria halves in BGj medium with 0.1% BSA
Protocol: FGF-1 was purchased from Peprotech Inc. (Rocky Hill, N.J.). RGD-1, 2, 3, 4, 5 and 6 (referred to here as D-00001, D-00002, D-00003, D-00004, D-00005 and D-00006) were provided by Dr. Nomizu (Hokkaido University, Japan).
Pregnant ICR mice were purchased from SLC Japan Co. Ltd. (Shizuoka, Japan).
Mouse calvarial organ culture was performed as described in Mundy G et al. Science 286: 1946–1949, 1999 and Traianedes K et al. Endocrinology 139: 3178–3184, 1998. The calvaria from 4-days-old mice were excised and cut in half along the sagittal suture. Each half of the calvaria was placed on a stainless steel grid in a 12-well tissue culture dish (Asahi Glass Techno Corp., Funabashi, Japan). Each well contained 1.5 ml of BGj medium (Sigma, St. Louis, Mo.) supplemented with 0.1% bovine serum albumin (Sigma) and each compound. FGF-1 was used as a positive control as described by Mundy et al. The medium was changed at day 1 and 4, and the assay was terminated at day 7.
Calvaria was fixed with 10% neutral-buffered formalin, decalcified with 4.13% EDTA and embedded in paraffin. […] sections were made and stained with hematoxylin and eosin. New bone area was measured using Image-Pro Plus (Media Cybernetics, Silver Spring, Md.).

[2] = tested on: calvariae of four week old mice; test: In vivo bone formation study (mouse calvaria growth assay); settings: for bone area of calvaria sections compared to vehicle treated group: s.c. adjacent to calvariae twice a day for five days, D-00006 20 μg/kg/day, FGF-1 12.5 μg/kg/day, excised 15 days after last administration
Protocol: FGF-1 was purchased from Peprotech Inc. (Rocky Hill, N.J.). RGD-6 (referred to here as D-00006) was synthesized by CS Bio (San Carlos, Calif.) under the instruction of the inventors.
Four week old mice were purchased from SLC Japan Co. Ltd. (Shizuoka, Japan) and randomized to three groups (n=5).
D-00006 (20 μg/kg/day), FGF-1 (12.5 μg/kg/day), or vehicle (saline) was subcutaneously injected into the soft tissues adjacent to the calvariae of the test animals. The daily amount of the samples were divided by two, respectively, and injected twice a day for five days. After 15 days of the last administration, the calvariae were excised and cut in half along the sagittal suture, and provided to the Histomorphometrical analysis.
Calvaria was fixed with 10% neutral-buffered formalin, decalcified with 4.13% EDTA and embedded in paraffin. 4mm-thickness sections were made and stained with hematoxylin and eosin. New bone area was measured using Image-Pro Plus (Media Cybernetics, Silver Spring, Md.).

[3] = tested on: ovariectomized female Sprague-Dawley rats; test: Effect on renal phosphate excretion in ovariectomized rats (serum and urine chemistry); type: in vivo, rat; settings: Ovx rats, D-00006 20 and 200 μg/kg/day
Text: Forty 3-month old virgin female Sprague-Dawley rats (Harlan Sprague Dawley, Inc.) were acclimated for one week prior to beginning the experiments.
One day prior to the initiation of treatments, the animals were anesthetized with a ketamin/xylazine anesthetic mixture, and animals in groups 2–5 were ovariectomized.
Urine was collected in metabolic cages on Day 41. Blood and urine samples were collected for chemistry and bone turnover markers assays at the end of the 41-day treatment period. Prior to urine and blood collections, the animals were placed in metabolic cages and deprived of food for an overnight fast period of 18 hours. Urine samples were collected and the volumes recorded. The urine samples were then centrifuges at approximately 3000×g for 10 minutes in a refrigerated centrifuge. The samples were filtered to remove contaminating sediments.

Substance	ability to enhance bone growth (new bone area) [1]	bone area of calvaria sections compared to vehicle treated group [2]	serum phosphorus ([3]; 41-day treatment)	total amount of phosphorus in the 18-hour urine collections ([3]; Day 41)	percentage of tubular reabsorption of phosphorus ([3]; derived urine parameter)	phosphate clearance ([3]; derived urine parameter)	efficacy on bone area relative to FGF-1 ([2]; D-00006 20 μg/kg/day vs FGF-1 12.5 μg/kg/day)
ERGDNDISPFSGDGQ (ERGDNDISPFSGDGQ-NH2) [D-00004]	best results						
FGF-1: fibroblast growth factor-1 purchased from Peprotech Inc., used as a positive control [reference compound]		significant expansion of bone area					
TDLQERGDNDISPFSGDGQPFKD [D-00006]	best results	significant expansion of bone area	dose-dependent increase	significant decrease	higher	lower	equivalent to that of FGF-1
